Experimental data from BindingDB's records for PubMed 35123298 (Comsats University Islamabad, 2022).

Tests used:
[1] = Negative allosteric modulation activity at human P2X4 receptor expressed in human 1321N1 cells assessed as ATP induced calcium response by measuring ATP EC50 at 100 nM
[2] = Negative allosteric modulation activity at human P2X4 receptor expressed in human 1321N1 cells assessed as ATP induced calcium response by measuring ATP EC50 at 40 nM
[3] = Negative allosteric modulation activity at human P2X4 receptor expressed in human 1321N1 cells assessed as ATP induced calcium response by measuring ATP EC50 at 200 nM
[4] = Negative allosteric modulation activity at human P2X7 receptor expressed in human 1321N1 cells assessed as ATP induced calcium response by measuring ATP EC50 at 200 nM
[5] = Negative allosteric modulation activity at human P2X7 receptor expressed in human 1321N1 cells assessed as ATP induced calcium response by measuring ATP EC50 at 100 nM
[6] = Negative allosteric modulation activity at human P2X7 receptor expressed in human 1321N1 cells assessed as ATP induced calcium response by measuring ATP EC50 at 40 nM

Row | EC50 [1] [µM] | EC50 [2] [µM] | EC50 [3] [µM] | EC50 [4] [µM] | EC50 [5] [µM] | EC50 [6] [µM] | SMILES
1 | 8.96 | 10.1 | 12.2 |  |  |  | CC(C)c1ccc(NC(=S)NC(=O)C23CC4CC(CC(C4)C2)C3)c(Br)c1
2 |  |  |  | 2.19 | 6.08 | 6.62 | O=C(NC(=S)Nc1cccc2cccnc12)C12CC3CC(CC(C3)C1)C2
